Assay [1] relates to spike with N764K mutation. In kind it is cell-based, SARS‐CoV‐2.
Assay [2] relates to spike with N969K mutation. Format: cell-based, SARS‐CoV‐2.
The subject of assay [3] is SARS‐CoV‐2 spike S2 subunit. Format: cell-based.
Assay [4] has as its system SARS‐CoV‐2 spike pseudovirus. Format: cell-based.
The subject of assay [5] is spike with N764K mutation. Format: cell-based, SARS‐CoV‐2. The source holds these as a separate data set.
Assay [6] relates to S2 subunit with N969K mutation. In kind it is binding, SARS‐CoV‐2.
The subject of assay [7] is spike with D796Y mutation. In kind it is cell-based, SARS‐CoV‐2.
In another assay the test system is SARS‐CoV‐2 spike. Format: cell-based.
Assay [8] has as its system S2 subunit with D796Y mutation. Format: binding, SARS‐CoV‐2.
Assay [9] relates to SARS‐CoV‐2^N764K spike pseudovirus. In kind it is cell-based.

Experimental findings from article PMC12686126, “LL‐37 Inhibits TMPRSS2‐Mediated S2' Site Cleavage and SARS‐CoV‐2 Infection but Not Omicron Variants” (Cell Proliferation, 2025) are described below.

On to “LLGDFFRKSKEKIGKEFKRIVQRIKDFLRNLVPRTES [LL‐37]”, for which the “generation of S2' fragment” value in [1] is on record as “did not significantly reduce”. Further, the “cell–cell fusion activity after LL‐37 pretreatment” value in [2] is given as “significantly lower cell–cell fusion activity”; in [5] it was “not the spike‐expressing cells with N764K mutation”; in assay [7], “significantly lower cell–cell fusion activity”; in the assay with SARS‐CoV‐2 spike, “significantly lower cell–cell fusion activity”. In [3], the “effect on polybasic cleavage site (S1/S2 boundary)” value was “excluded the effect of LL‐37 on the polybasic cleavage site”. Besides, the “inhibition of RLU only caused by overexpression of TMPRSS2” value in [4] is “about 70%”. For the same sequence, the “inhibition of pseudovirus entry into 293T‐A2T2 cells” value in assay [4] worked out at 52%. Further, the “binding of S2 subunit to immobilised LL‐37” value in [6] and in assay [8] was “no difference or even enhanced binding” each time. Moreover, the “reduction of RLU induced by SARS‐CoV‐2^N764K” value in assay [9] is on record as “did not significantly reduce”.
